Measurements: US9636330B2, “Tetrahydrocarboline derivative” (ONO PHARMACEUTICAL CO., LTD., priority 2010, dated 2017)

What was measured:
[1] = system: urethra internal pressure of a rat; experiment: Measurement of Urethra Internal Pressure in Rat Under Anesthesia; type: in vivo; conditions: SD male rat under urethane anesthesia, intravenous
Text: A SD male rat (Crl: CD(SD), Charles River Laboratories Japan, Inc., 7-10 weeks old) was anesthetized by subcutaneous administration of 1.5 g/kg urethane at a back of a neck. After neck median incision, a jugular vein catheter for intravenous administration was inserted. A lower abdominal part was median incised, and a urethra was ligated at around pubis. A urethral catheter for measuring a urethra internal pressure, equipped with a collar at a tip and filled with a physiological saline was inserted into a urethra through an incised bladder top, and ligation-fixed at a bladder neck part. The urethral catheter was connected to a pressure transducer (manufactured by Nihon Kohden Corporation), and a urethra internal pressure was measured. […] A urethra internal pressure reduction rate (%) was calculated based on a urethra internal pressure after compound administration, wherein a value obtained by subtracting a postmortem baseline value (minimum value of urethra internal pressure for 10 minutes after administration of somnopentyl) from a urethra internal pressure value before compound administration (0 minute) was 100%.

human ENPP2 = human ENPP2 (Homo sapiens (Human), UniProt Q13822); experiment: Measurement of Human ENPP2 Inhibitory Activity; type: biochemical; conditions: 1 μM test compound; 16:0-LPC substrate, choline production; read-out: ENPP2 inhibition rate(%) (1 μM)
Protocol: 10 μL of a test compound solution (10% dimethyl sulfoxide) at each concentration and 40 μL of a 5 μg/mL human ENPP2 solution (buffer A: 100 mmol/L Tris-HCl (pH 9.0), 500 mmol/L NaCl, 5 mmol/L MgCl2, 0.05% Triton X-100) were mixed, 50 μL of a 2 mmol/L 16:0-lysophosphatidylcholine (LPC) solution (buffer A) was further added to react at 37° C. for 24 hours. Subsequently, to 10 μL of the reaction solution was added 90 μL of a measurement buffer (0.5 mmol/L aminoantipyrine, 0.3 mmol/L N-ethyl-N-(2-hydroxy-3-sulfopropyl)-3-methylaniline, 1 U/mL peroxidase, 3 U/mL choline oxidase, 100 mmol/L Tris-HCl (pH 8.5), 5 mmol/L CaCl2) to react at 37° C. for 20 minutes, and spectrophotometric determination was performed at 555 nm.
Using a standard curve, a choline production amount (enzyme activity) in each test compound was calculated, and the inhibitory activity rate of each test compound was calculated, wherein the enzyme activity in a positive control to which a test compound is not added, was a 0% inhibition rate, and the enzyme activity in a negative control to which a test compound and human ENPP2 are not added, were 100% inhibition. Further, concerning the present compounds shown in Table 3, an IC50 value was calculated from inhibitory activity rate at each concentration.

Q: With `O=C(C[C@H]1CC[C@H](C(=O)O)CC1)N1CCc2c(n(Cc3ccc(Cl)cc3F)c3ncccc23)C1` [Example 31(24), trans-4-{2-[9-(4-chloro-2-fluorobenzyl)-5,6,8,9-tetrahydro-7H-pyrido[4′,3′:4,5]pyrrolo[2,3-b]pyridin-7-yl]-2-oxoethyl}cyclohexanecarboxylic acid] as the compound, how does the urethra internal pressure ([1]; dose 0.03, 0.1, 0.3 mg/kg, FIG. 2) read?
A: significantly reduced a urethra internal pressure

Q: For `O=C(CC12CCC(C(=O)O)(CC1)CC2)N1CCc2c(n(Cc3ccc(Cl)cc3F)c3ncccc23)C1` [Example 31(142), 4-{2-[9-(4-chloro-2-fluorobenzyl)-5,6,8,9-tetrahydro-7H-pyrido[4′,3′:4,5]pyrrolo[2,3-b]pyridin-7-yl]-2-oxoethyl}bicyclo[2.2.2]octane-1-carboxylic acid], which inhibition at 1 µM (human ENPP2) is on record?
A: 98.6%

Q: Which urethra internal pressure ([1]; dose 0.1, 0.3, 1.0 mg/kg, FIG. 1) does the source give for `O=C(O)CCCCC(=O)N1CCc2c(n(CCCc3ccccc3)c3ccccc23)C1` [Example 3, 6-oxo-6-[9-(3-phenylpropyl)-1,3,4,9-tetrahydro-2H-beta-carbolin-2-yl]hexanoic acid] here?
A: significantly reduced a urethra internal pressure
